Entries after “also recorded” stand apart in the source; their conditions may differ.
Tests used:
[1] = tested on: NY-ESO1-TCR+ Jurkat reporter cells; experiment: Jurkat-NYESO1-IL-2-Luc and A375-CD64 co-stimulation assay; format: cell-based, human
Source text: Jurkat-IL-2-Luc reporter cells (Promega, Product #J1631) were engineered with T cell receptor, TCR (Wargo J. Cancer Immunol Immunother 2009; Zhao Y. J Immunol 2005, Li Y, Nat Biotechnol 2005) against HLA-A2 restricted NY-ESO1 (SLLMWITQC-SEQ ID NO: 19) epitope using lentiviral transduction system. Human melanoma cells A375, which express human HLA-A*0201, were transduced with lentiviral vector containing endogenous codon for NY-ESO1 gene (Refseq accession NM_001327.2, CCDS14758.1). Upon expression, the construct underwent proteolytic cleavage at the ubiquitin/epitope junction, thus generating free, cytoplasmic epitope, which can be translocated into the endoplasmic reticulum and loaded onto class I HLA. A375-NY-ESO1 positive cells were treated with IFNγ to induce HLA expression and NY-ESO1 antigen presentation. The HLA expression and the antigen presentation was confirmed by Western Blot. The NY-ESO1^+-A375 cells were further engineered to express human FCγRI (CD64, GenBank:AAA58414.1, RefSeq:P12314.1) for cell surface assembly and displaying of CD80-Fc fusion proteins. The expression of FCγRI was confirmed by flow cytometry analysis.
A 96 well culture plate was seeded with NY-ESO1^+-A375 cells or NY-ESO1^+/FCγRI^+-A375 at 40,000 cells per well in 100 µL growth media (RPMI, 10% Heat Inactivated FBS, 200 μg/mL Hygromycin B, 1 mM sodium pyruvate, 0.1 mM MEM NEAA, 1 μg/mL puromycin) containing 10 ng/ml of human IFNγ (R&D Systems, product #285-IF) to induce MHC-A2 expression and grown overnight at 37° C. in CO2 incubator. To each well, NY-ESO1-TCR^+ Jurkat reporter cells, 100,000 (in 20 μL media), were added. 20 μL of serial dilutions of variant CD80-Fc fusion proteins with concentrations ranging from 0-1000 ng/ml (final concentrations per well) was added with appropriate controls. Assay plates were incubated for 6 hours at 37° C. in CO2 incubator. Following equilibration, 80 μL BioGlo luminescence reagent (BioGlo Luciferase assay kit, Promega, G7940) was added into each well. Plates were incubated for 5 minutes before reading luminescence on the EnSight™ plate reader (PerkinElmer).

[2] = tested on: CT26 murine colorectal carcinoma cells; experiment: CT26 colorectal carcinoma model, combination with αPD1 antibody; format: in vivo, mouse; conditions: for Day 13 tumor volume / % tumor growth inhibition: αPD1 Ab 10 mg/kg where combined; for % tumor growth inhibition: Day 13
Protocol: CT26 murine colorectal carcinoma cells (1×10^6) were subcutaneously implanted in the hind flank of female Balb/c mice. When tumors reached ˜100 mm3 (day 8 after implantation), mice were randomized and dosed with PBS vehicle control, 0.1 mg/kg CD80-D90Q-Fc, and/or 10 mg/kg murine αPD1 antibody. CD80-D90Q-Fc was dosed on Days 0 and 3, αPD1 antibody was dosed on Days 0, 3 and 6. Tumor volume was determined by caliper measurements obtained in 2 dimensions and calculated as width^2×length/2. Error bars are depicted as ±SEM
IFNγ ELIspot was used to measure tumor-reactive T cells in the spleen and TDLNs in mice treated with 1 mg/kg D90Q, αPD1 Ab, or the combination. […] The combination led to an even higher amount of tumor-reactive T cells in the TDLN compared to either agent alone.

human PD-L1 = human PD-L1 (Homo sapiens, UniProt Q9NZQ7); experiment: SPR (Biacore) binding to immobilized human PD-L1; conditions: Human PD-L1 immobilized at 60 μg/ml and 75 μg/ml
Sequence of human PD-L1 (Q9NZQ7 19-238 limits assumed): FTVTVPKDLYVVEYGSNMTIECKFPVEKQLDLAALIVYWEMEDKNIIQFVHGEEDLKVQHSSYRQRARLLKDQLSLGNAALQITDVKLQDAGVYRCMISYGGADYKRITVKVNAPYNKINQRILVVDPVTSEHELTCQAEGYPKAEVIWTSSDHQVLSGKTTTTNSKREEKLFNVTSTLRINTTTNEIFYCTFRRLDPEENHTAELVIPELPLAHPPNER
Protocol: (physiologic temperature) with a collection rate of 10 Hz. Purified soluble ligands were covalently coupled onto a CM5 sensor chip using an Amine coupling Kit (GE Healthcare, Product #BR100050) following the manufacturer's recommendations. […] The flow was again returned to running buffer and dissociation was monitored for 300 sec. Binding affinities and rate constants were determined by fitting the resulting double referenced (Myszka, D. G. J. Mol. Recognit. 12, 279-284 (1999)) sensorgram data to a 1:1 Langmuir model with Biacore Insight Evaluation software version 2.0 (GE Healthcare).
Binding of variant CD80-Fc to PD-L1 was not detected. FIG. 9A-9D show the SPR sensorgrams depicting binding of varying concentrations of CD80-WT-Fc and CD80-K89D-D90K-T28V-T57V-Fc to two different concentrations of immobilized human PD-L1 (60 μg/ml and 75 μg/ml).

[3] = tested on: MC38 murine colorectal carcinoma cells; experiment: MC38 murine colorectal carcinoma model, IV and SC dosing; format: in vivo, mouse; conditions: for CD8^+ T cell infiltrates (% CD45): MC38, n=4
Protocol: MC38 murine colorectal carcinoma cells (5×10^5) were subcutaneously implanted in the hind flank of female […] mice. When tumors reach ˜50 mm^3 (day 6 after implantation), mice were randomized. PBS vehicle control or variant CD80-Fc fusion proteins were dosed intravenously (IV) or subcutaneously (SC) with doses ranging from 0.01-3.0 mg/kg on Days 0 and 3. Tumor volume was determined by caliper measurements obtained in 2 dimensions and calculated as width^2×length/2. Error bars are depicted as ±SEM.
Cytotoxic CD8^+ T cells are responsible for killing cancer cells and the measurement of CD8^+ T cells that have infiltrated tumors commonly correlates with efficacy for immune-oncology therapies. For all in vivo studies, tumors were collected ˜1 week after the first dose and dissociated by mincing, followed by incubation in an enzymatic digestion cocktail and homogenization. The resulting cell suspension was filtered and washed, and single cells were stained with antibodies to CD45, CD8, and a viability dye to detect tumor-infiltrating lymphocytes (TILs) by flow cytometry. Data were acquired on a BD LSRFortessa flow cytometer or a Cytek Aurora spectral flow cytometer. Table 31 and FIG. 18 show the amount of tumor-infiltrating CD8+ T cells expressed as a percentage of total immune cells (CD45+). Each value is the average of n=4 mice per group. Treatment with all variant CD80-Fc fusion proteins led to increase in CD8+ TILs in various tumor models.

[4] = CD80-D90Q-Fc 1 mg/kg and/or αPD1 Ab, n=4 per group

CD80-D90Q-Fc: variant CD80 ECD (D90Q) fused to human IgG1 Fc
enhanced co-stimulation compared to CD80-WT-Fc [1]: about 4 fold | Tumor-reactive T cells (IFNγ ELIspot), Spleen [2, 4]: 881.42 | Tumor-reactive T cells (IFNγ ELIspot), TDLN [2, 4]: 361.08 | Day 13 tumor volume ([2]; CD80-Fc dose 0.1 mg/kg): 776.1 mm^3 | Day 13 tumor volume ([2]; CD80-Fc dose 1 mg/kg): 270.4 mm^3 | % tumor growth inhibition ([2]; CD80-Fc dose 0.1 mg/kg): 61.2% | % tumor growth inhibition ([2]; CD80-Fc dose 1 mg/kg): 86.5%

CD80-K89D-D90K-T28V-T57V-Fc: non-cysteine stabilized variant CD80-Fc fusion protein (K89D, D90K, T28V, T57V)
binding to PD-L1 (human PD-L1): undetectable; also recorded: No binding | % tumor growth inhibition ([3]; Day 15, Intravenous 0.01 mg/kg): 17.9% | % tumor growth inhibition ([3]; Day 15, Intravenous 0.1 mg/kg): 25.2% | % tumor growth inhibition ([3]; Day 15, Intravenous 1 mg/kg): 59.9% | % tumor growth inhibition ([3]; Day 15, Intravenous 3 mg/kg): 83.8% | % tumor growth inhibition ([3]; Day 15, Subcutaneous 0.01 mg/kg): 11.1% | % tumor growth inhibition ([3]; Day 15, Subcutaneous 0.1 mg/kg): 27.1% | % tumor growth inhibition ([3]; Day 15, Subcutaneous 1 mg/kg): 73.7% | % tumor growth inhibition ([3]; Day 15, Subcutaneous 3 mg/kg): 84.4% | Day 15 tumor volume ([3]; Intravenous 0.01 mg/kg): 1042.1 mm^3 | Day 15 tumor volume ([3]; Intravenous 0.1 mg/kg): 954.8 mm^3 | Day 15 tumor volume ([3]; Intravenous 1 mg/kg): 535.3 mm^3 | Day 15 tumor volume ([3]; Intravenous 3 mg/kg): 248.1 mm^3 | CD8^+ T cell infiltrates (% CD45) ([3]; 0.01 mg/kg): 6.26 % CD45 | CD8^+ T cell infiltrates (% CD45) ([3]; 0.1 mg/kg): 10.81 % CD45 | CD8^+ T cell infiltrates (% CD45) ([3]; 1 mg/kg): 23.58 % CD45 | Day 15 tumor volume ([3]; Subcutaneous 0.01 mg/kg): 1125.4 mm^3 | Day 15 tumor volume ([3]; Subcutaneous 0.1 mg/kg): 931.7 mm^3 | Day 15 tumor volume ([3]; Subcutaneous 1 mg/kg): 369.7 mm^3 | Day 15 tumor volume ([3]; Subcutaneous 3 mg/kg): 240.9 mm^3

CD80-K89Q-D90Q-E23C-A26C-Fc: disulfide stabilized variant CD80-Fc fusion protein (K89Q, D90Q, E23C, A26C)
% tumor growth inhibition ([3]; Day 16, Intravenous 0.01 mg/kg): 31.2% | % tumor growth inhibition ([3]; Day 16, Intravenous 0.1 mg/kg): 37.7% | % tumor growth inhibition ([3]; Day 16, Intravenous 1 mg/kg): 64.2% | % tumor growth inhibition ([3]; Day 16, Intravenous 3 mg/kg): 93.0% | % tumor growth inhibition ([3]; Day 16, Subcutaneous 1.5 mg/kg): 64.2% | % tumor growth inhibition ([3]; Day 16, Subcutaneous 3 mg/kg): 83.7% | Day 16 tumor volume ([3]; Intravenous 0.01 mg/kg): 905.1 mm^3 | Day 16 tumor volume ([3]; Intravenous 0.1 mg/kg): 824.7 mm^3 | Day 16 tumor volume ([3]; Intravenous 1 mg/kg): 495.3 mm^3 | Day 16 tumor volume ([3]; Intravenous 3 mg/kg): 138.9 mm^3 | CD8^+ T cell infiltrates (% CD45) ([3]; 0.01 mg/kg): 9.8 % CD45 | CD8^+ T cell infiltrates (% CD45) ([3]; 0.1 mg/kg): 24.5 % CD45 | CD8^+ T cell infiltrates (% CD45) ([3]; 1 mg/kg): 24.6 % CD45 | CD8^+ T cell infiltrates (% CD45) ([3]; 3 mg/kg): 41.3 % CD45 | Day 16 tumor volume ([3]; Subcutaneous 1.5 mg/kg): 495.6 mm^3 | Day 16 tumor volume ([3]; Subcutaneous 3 mg/kg): 252.2 mm^3

CD80-K89Q-D90Q-Fc: variant CD80 ECD (K89Q, D90Q) fused to human IgG1 Fc
enhanced co-stimulation compared to CD80-WT-Fc [1]: about 4 fold

CD80-WT-Fc: wild-type human CD80 extracellular domain fused to human IgG1 Fc (C220S) [reference compound]
binding to PD-L1 (human PD-L1): detectable binding

Source: patent US20240209061A1, “FUSION PROTEINS AND USES THEREOF” (Pfizer Inc., priority 2020, published 2024)
